Test results as given in patent publication US10927105B1 (Lundbeck La Jolla Research Center, Inc., priority 2017, dated 2021).

Biological target: MAGL (Homo sapiens (Human), UniProt Q99685)
Assay: In vitro competitive activity-based protein profiling (human prefrontal cortex membrane fractions, FP-Rh probe), MAGL band
Conditions: read-out: MAGL IC50 (μM) (human); human prefrontal cortex membrane fractions

Sequence of MAGL (Q99685 whole entry): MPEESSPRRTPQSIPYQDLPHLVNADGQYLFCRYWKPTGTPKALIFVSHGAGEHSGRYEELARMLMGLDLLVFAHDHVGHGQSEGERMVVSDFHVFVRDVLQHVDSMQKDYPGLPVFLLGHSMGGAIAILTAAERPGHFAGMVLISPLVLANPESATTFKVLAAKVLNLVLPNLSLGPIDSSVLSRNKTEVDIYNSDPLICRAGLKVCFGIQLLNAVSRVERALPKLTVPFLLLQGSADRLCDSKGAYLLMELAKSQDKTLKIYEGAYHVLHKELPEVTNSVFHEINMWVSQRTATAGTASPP

Row | IC50 [µM] | Compound
1 | < 0.1 | CN(Cc1cc(N2CCCC2)cc(C(F)(F)F)c1)C1(C)CCN(C(=O)n2ccc(C(=O)O)n2)CC1 [Example 381, 1-(4-methyl-4-(methyl(3-(pyrrolidin-1-yl)-5-(trifluoromethyl)-benzyl)amino)-piperidine-1-carbonyl)-1H-pyrazole-3-carboxylic acid]
2 | < 0.1 | CN(Cc1cc(C(F)(F)F)ccc1N1CCCC1)C1(C)CCN(C(=O)n2ccc(C(=O)O)n2)CC1 [Example 384, 1-(4-methyl-4-(methyl(2-(pyrrolidin-1-yl)-5-(trifluoromethyl)-benzyl)amino)-piperidine-1-carbonyl)-1H-pyrazole-3-carboxylic acid]
3 | < 0.1 | CN(Cc1ccc(C(F)(F)F)c(N2CCCC2)c1)C1(C)CCN(C(=O)n2ccc(C(=O)O)n2)CC1 [Example 385, 1-(4-methyl-4-(methyl(3-(pyrrolidin-1-yl)-4-(trifluoromethyl)-benzyl)amino)-piperidine-1-carbonyl)-1H-pyrazole-3-carboxylic acid]
4 | < 0.1 | O=C(O)c1nn(C(=O)N2CCC3(CCN(Cc4cc(Cl)cc(C(F)(F)F)c4)C3)CC2)cc1Cl [Example 388, 4-chloro-1-(2-(3-chloro-5-(trifluoromethyl)-benzyl)-2,8-diazaspiro-[4.5]decane-8-carbonyl)-1H-pyrazole-3-carboxylic acid]
5 | < 0.1 | NC(=O)c1ccn(C(=O)N2CCC3(CCCN3C(=O)c3cc4ccc(C(F)(F)F)cc4s3)CC2)n1 [Example 389, 1-(1-(6-(trifluoromethyl)-benzo-[b]thiophene-2-carbonyl)-1,8-diazaspiro-[4.5]decane-8-carbonyl)-1H-pyrazole-3-carboxamide]
6 | < 0.1 | O=C(O)c1ccn(C(=O)N2CCC3(CCN(Cc4cc(N5CCCC5)ccc4C(F)(F)F)C3)CC2)n1 [Example 391, 1-(2-(5-(pyrrolidin-1-yl)-2-(trifluoromethyl)-benzyl)-2,8-diazaspiro[4.5]-decane-8-carbonyl)-1H-pyrazole-3-carboxylic acid]
7 | < 0.1 | NC(=O)c1ccn(C(=O)N2CC3CN(Cc4ccc(C5(O)CCOCC5)cc4C(F)(F)F)CC3C2)n1 (stereo not drawn) [Example 396, 1-(5-(4-(4-hydroxytetrahydro-2H-pymn-4-yl)-2-(trifluoromethyl)-benzyl)-octahydropyrrolo-[3,4-c]pyrrole-2-carbonyl)-1H-pyrazole-3-carboxamide]
8 | < 0.1 | CN(Cc1ccc(C(F)(F)F)cc1N1CCCCC1)C1(C)CCN(C(=O)n2ccc(C(=O)O)n2)CC1 [Example 397, 1-(4-methyl-4-(methyl(2-(piperidin-1-yl)-4-(trifluoromethyl)-benzyl)amino)-piperidine-1-carbonyl)-1H-pyrazole-3-carboxylic acid]
9 | < 0.1 | Cc1cn(C(=O)N2CCC(C)(N(C)Cc3ccc(C(F)(F)F)cc3N3CCCC3)CC2)nc1C(=O)O [Example 398]
10 | < 0.1 | O=C(O)c1nn(C(=O)N2CCN(Cc3cccc(Oc4cc(C(F)(F)F)ccn4)c3)CC2)cc1Cl [Example 399, 4-chloro-1-(4-(3-((4-(trifluoromethyl)-pyridin-2-yl)oxy)benzyl)piperazine-1-carbonyl)-1H-pyrazole-3-carboxylic acid]
11 | < 0.1 | O=C(O)c1nn(C(=O)N2CCN(Cc3cc(F)cc(Oc4ccc(Cl)cc4)c3)CC2)cc1C(F)(F)F [Example 408, 1-(4-(3-(4-chlorophenoxy)-5-fluorobenzyl)-piperazine-1-carbonyl)-4-(trifluoromethyl)-1H-pyrazole-3-carboxylic acid]
12 | < 0.1 | O=C(O)c1nn(C(=O)N2CCN(Cc3cccc(Oc4cc(C(F)(F)F)ccn4)c3)CC2)cc1C(F)(F)F [Example 414, 4-(trifluoromethyl)-1-(4-(3-((4-(trifluoromethyl)-pyridin-2-yl)oxy)benzyl)-piperazine-1-carbonyl)-1H-pyrazole-3-carboxylic acid]
